For seven compounds, Relative albumin-binding affinity and Albumin-bound fraction results are on record in PMC10486429, “Investigations Using Albumin Binders to Modify the Tissue Distribution Profile of Radiopharmaceuticals Exemplified with Folate Radioconjugates” (Cancers, 2023).

Series [1] addresses human serum albumin (HSA) in human plasma (Homo sapiens, UniProt P02768). Nature of the series: Ultrafiltration albumin-binding assay of 177Lu-RedFols, human plasma. Conditions: for Relative albumin-binding affinity: human blood plasma, inverse B50 ratio, normalized to the respective (6R or 6S) RedFol-1, set as 1.0; for Albumin-bound fraction: undiluted human blood plasma. The method, then:
An ultrafiltration method was applied according to a previously published procedure (Supplementary Materials Section S11) that was different from the one reported for the ^177Lu-DOTA-ALBs to prevent non-specific binding to the filter units. Briefly, the albumin-bound fraction was determined at different molar concentration ratios of serum albumin relative to the ^177Lu-labeled RedFols using a blood plasma/PBS dilution series and constant amounts of the respective ^177Lu-labeled folate conjugate (0.3 MBq; 0.006 nmol). The albumin-bound fraction was separated from the free (albumin-unbound) fraction of each sample using Amicon centrifugal filters (cut-off of 10 kDa; Merck Millipore, Carrigtwohill, Ireland). The inserts of the filter devices were inverted and centrifuged to recover the albumin-bound fraction, whereas filter-bound activity was considered as free (albumin-unbound) folate radioconjugate. The activity of the different fractions was measured using a γ-counter (Perkin Elmer, Wallac Wizard 1480, Waltham, MA, USA), and the proportion of albumin-bound radioconjugate was set in relation to the total activity measured. The data were analyzed in analogy to those of ^177Lu-DOTA-ALBs (Section 2.1.3). The relative albumin-binding affinity was assessed by calculating the inverse ratio of the B50 value of each 6R-5-MTHF-based folate radioconjugate to the B50 value of [^177Lu]Lu-6R-RedFol-1 (set as 1.0) and of each 6S-5-MTHF-based folate radioconjugate to the B50 value of [^177Lu]Lu-6S-RedFol-1 (set as 1.0). The results were presented as average ± SD of n = 3 independent experiments. […]
(§1) S11. Relative Albumin-Binding Properties of 177Lu-RedFols
Purpose: The affinity of the folate radioconjugates to serum albumin in mouse and human blood plasma was determined and compared.
Methods: The albumin-binding affinity of the 177Lu-RedFols was assessed using mouse plasma (Rockland Immunochemicals, Inc., Pottstown, PA, USA, Lot N: 32321; MSA: ⁓550 µM) and human plasma (Stiftung Blutspende SRK Aargau-Solothurn, Aarau, Switzerland; HSA: ⁓800 µM), respectively. An ultrafiltration method was applied accord-ing to a previously published procedure that was different from the one reported for the 177Lu-DOTA-ALBs to avoid non-specific binding to the filter units.
The folate radioconjugates (50 MBq/nmol, ~300 kBq, 6 pmol in 15 µL) were added to samples of mouse and human blood plasma (150 µL), followed by incubation of the sam-ples at 37 °C for 30 min. The samples were loaded on Amicon centrifugal filters (cut-off of 10 kDa; Merck Millipore, Carrigtwohill, Ireland) followed by centrifugation (14000 rcf, 30 min, 4 °C) to allow the separation of the serum albumin-bound from the free (albumin-unbound) fractions of each sample. The inserts of the filter devices were inverted and centrifuged at 200 rcf for 3 min to recover the albumin-bound fraction. The activity of the albumin-bound fraction as well as the activity in the filtrate and in the filter unit were measured separately in a γ-counter (Perkin Elmer, Wallac Wizard 1480, Waltham, MA, USA). The percentage of radioconjugate bound to mouse and human albumin, respec-

Series [2] concerns the target T1, mouse serum albumin (MSA) in mouse plasma (Mus musculus, UniProt P07724).
T1 construct: tissue Rockland Immunochemicals, Inc. Lot No. 32321; host or cells: mouse blood plasma, undiluted and diluted in PBS
Nature of the series: Ultrafiltration albumin-binding assay of 177Lu-RedFols, mouse plasma. The conditions noted are these: for Relative albumin-binding affinity: mouse blood plasma, inverse B50 ratio, normalized to the respective (6R or 6S) RedFol-1, set as 1.0; for Albumin-bound fraction: undiluted mouse blood plasma. The method, then:
as §1
human blood plasma was determined and compared.
Switzerland; HSA: ⁓800 µM), respectively. An ultrafiltration method was applied accord-
ples at 37 °C for 30 min.
unbound) fractions of each sample. The inserts of the filter devices were inverted and
were presented as average of 3 independent experiments.

Sequence of human serum albumin (HSA) in human plasma (P02768 25-609): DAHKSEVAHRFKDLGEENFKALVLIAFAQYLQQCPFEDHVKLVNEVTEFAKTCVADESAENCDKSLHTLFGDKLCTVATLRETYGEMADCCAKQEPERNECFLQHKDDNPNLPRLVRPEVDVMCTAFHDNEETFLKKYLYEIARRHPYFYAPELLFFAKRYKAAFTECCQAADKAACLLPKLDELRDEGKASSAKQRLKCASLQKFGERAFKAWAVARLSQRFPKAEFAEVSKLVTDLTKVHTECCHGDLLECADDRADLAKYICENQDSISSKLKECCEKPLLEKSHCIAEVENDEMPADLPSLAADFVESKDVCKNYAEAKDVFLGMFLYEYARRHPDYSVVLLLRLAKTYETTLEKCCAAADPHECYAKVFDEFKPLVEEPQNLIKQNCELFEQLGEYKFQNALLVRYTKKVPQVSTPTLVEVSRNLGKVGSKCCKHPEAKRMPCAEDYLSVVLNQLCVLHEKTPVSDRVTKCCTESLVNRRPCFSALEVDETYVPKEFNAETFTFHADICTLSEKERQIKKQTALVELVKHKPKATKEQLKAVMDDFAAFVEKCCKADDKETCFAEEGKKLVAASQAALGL
T1 sequence (P07724 25-608): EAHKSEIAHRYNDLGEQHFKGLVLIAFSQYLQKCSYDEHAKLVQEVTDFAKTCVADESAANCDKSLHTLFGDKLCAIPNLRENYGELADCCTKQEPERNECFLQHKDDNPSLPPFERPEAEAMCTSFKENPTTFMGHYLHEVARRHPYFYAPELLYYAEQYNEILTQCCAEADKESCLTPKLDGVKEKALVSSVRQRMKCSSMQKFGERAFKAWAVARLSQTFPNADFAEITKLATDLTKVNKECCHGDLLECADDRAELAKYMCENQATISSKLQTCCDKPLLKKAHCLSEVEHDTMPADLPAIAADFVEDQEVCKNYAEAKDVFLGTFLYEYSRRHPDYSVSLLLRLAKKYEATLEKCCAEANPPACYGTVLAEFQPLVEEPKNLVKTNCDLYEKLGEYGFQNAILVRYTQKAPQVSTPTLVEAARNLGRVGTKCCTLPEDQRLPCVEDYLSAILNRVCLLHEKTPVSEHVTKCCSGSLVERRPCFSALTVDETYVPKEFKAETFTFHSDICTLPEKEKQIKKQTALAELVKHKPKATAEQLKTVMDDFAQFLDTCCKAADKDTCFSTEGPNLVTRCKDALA

As for `CN1c2c(nc(N)[nH]c2=O)NC[C@H]1CNc1ccc(C(=O)N[C@@H](CCC(=O)N[C@@H](CCCCNC(=O)CN2CCN(CC(=O)O)CCN(CC(=O)O)CCN(CC(=O)O)CC2)C(=O)N[C@@H](CCCCNC(=O)CCCc2ccc(I)cc2)C(=O)O)C(=O)O)cc1` [[^177Lu]Lu-6R-RedFol-1, metal not drawn], the Relative albumin-binding affinity in series [1] and in series [2] was 1.0 each time. In addition, the Albumin-bound fraction turned out to be 98% in series [1] and 93% in series [2].

For `CN1c2c(nc(N)[nH]c2=O)NCC1CNc1ccc(C(=O)NC(CCC(=O)NC(CCCCNC(=O)CN2CCN(CC(=O)[O-])CCN(CC(=O)[O-])CCN(CC(=O)[O-])CC2)C(=O)NC(CCCCNC(=O)c2ccc(CNC(=O)CCCc3ccc(I)cc3)cc2)C(=O)O)C(=O)O)cc1.[177Lu+3]` (stereo not drawn) [[^177Lu]Lu-6S-RedFol-3], in series [1], the Relative albumin-binding affinity is given as 1.1 and the Albumin-bound fraction was 97%. In series [2], the Relative albumin-binding affinity was 3.5 and the Albumin-bound fraction worked out at 97%.

As to `CN1c2c(nc(N)[nH]c2=O)NC[C@H]1CNc1ccc(C(=O)N[C@@H](CCC(=O)N[C@@H](CCCCNC(=O)CN2CCN(CC(=O)O)CCN(CC(=O)O)CCN(CC(=O)O)CC2)C(=O)N[C@@H](CCCCNC(=O)c2ccc(CNC(=O)CCCc3ccc(I)cc3)cc2)C(=O)O)C(=O)O)cc1` [[^177Lu]Lu-6R-RedFol-3, metal not drawn], in series [1], the Relative albumin-binding affinity is 1.1 and the Albumin-bound fraction turned out to be 97%. Moreover, in series [2], the Relative albumin-binding affinity is 8.4 and the Albumin-bound fraction came out at 97%.

On to `CN1c2c(nc(N)[nH]c2=O)NC[C@H]1CNc1ccc(C(=O)N[C@@H](CCC(=O)N[C@@H](CCCCNC(=O)CN2CCN(CC(=O)O)CCN(CC(=O)O)CCN(CC(=O)O)CC2)C(=O)N[C@@H](CCCCNC(=O)CCCCc2ccc(I)cc2)C(=O)O)C(=O)O)cc1` [[^177Lu]Lu-6R-RedFol-24, metal not drawn], for which, in series [1], the Relative albumin-binding affinity stood at 0.5 and the Albumin-bound fraction is 94%. In series [2], the Relative albumin-binding affinity stood at 0.2 and the Albumin-bound fraction is reported as 73%.

`CN1c2c(nc(N)[nH]c2=O)NC[C@H]1CNc1ccc(C(=O)N[C@@H](CCC(=O)N[C@@H](CCCCNC(=O)CN2CCN(CC(=O)O)CCN(CC(=O)O)CCN(CC(=O)O)CC2)C(=O)N[C@@H](CCCCNC(=O)c2ccc(CNC(=O)CCCCc3ccc(I)cc3)cc2)C(=O)O)C(=O)O)cc1` [[^177Lu]Lu-6R-RedFol-25, metal not drawn]: in series [1], the Relative albumin-binding affinity was 0.5 and the Albumin-bound fraction was determined as 96%. Moreover, in series [2], the Relative albumin-binding affinity was 1.4 and the Albumin-bound fraction is recorded as 94%.

For `CN1c2c(nc(N)[nH]c2=O)NCC1CNc1ccc(C(=O)NC(CCC(=O)NC(CCCCNC(=O)CN2CCN(CC(=O)[O-])CCN(CC(=O)[O-])CCN(CC(=O)[O-])CC2)C(=O)NC(CCCCNC(=O)c2ccc(CNC(=O)CCCCc3ccc(I)cc3)cc2)C(=O)O)C(=O)O)cc1.[177Lu+3]` (stereo not drawn) [[^177Lu]Lu-6S-RedFol-25], in series [1], the Relative albumin-binding affinity is on record as 0.2 and the Albumin-bound fraction is given as 91%. In addition, in series [2], the Relative albumin-binding affinity came to 0.7 and the Albumin-bound fraction is on record as 92%.

For the compound `CN1c2c(nc(N)[nH]c2=O)NCC1CNc1ccc(C(=O)NC(CCC(=O)NC(CCCCNC(=O)CN2CCN(CC(=O)[O-])CCN(CC(=O)[O-])CCN(CC(=O)[O-])CC2)C(=O)NC(CCCCNC(=O)CCCc2ccc(I)cc2)C(=O)O)C(=O)O)cc1.[177Lu+3]` (stereo not drawn) [[^177Lu]Lu-6S-RedFol-1], in series [1], the Relative albumin-binding affinity came to 1.0 and the Albumin-bound fraction is reported as 98%. Besides, in series [2], the Relative albumin-binding affinity was 1.0 and the Albumin-bound fraction is on record as 93%.
